Consider 17 compounds from paper PMC7241536, “Design, synthesis and in vitro antiproliferative activity of new thiazolidinedione-1,3,4-oxadiazole hybrids as thymidylate synthase inhibitors” (Journal of Enzyme Inhibition and Medicinal Chemistry, 2020).

Data set [1] deals with MCF-7 (breast cancer). Nature of the data set: MTT cytotoxicity assay, MCF-7. In kind it is cell-based, human. The following applies: for IC50: MTT, 72 h, breast cancer cell line MCF-7, read-out: IC50 against MCF-7; for folds activity of 5-FU against MCF-7: relative to 5-fluorouracil. The protocol: (§1) The methods are provided in Supplementary material.
(§2) The newly synthesised compounds 7–21 were tested for their cytotoxicity against human cancer cell line viz. breast and colorectal using MTT assay.
(§3) Two human cancer cell lines, MCF-7 and HCT-116 were cultured in Dulbecco’s Modified Eagles Medium (DMEM) high glucose medium which was supplemented with 10% fetal bovine serum (FBS), 10,000 units/mL penicillin/streptomycin (Pen/Strep) and 1% glutamine). The above cell lines were cultured in 75 cm2 flasks and maintained at 37 °C in an incubator humidified with 5% CO2. The cell culture was performed using aseptic techniques in a Class II […]
(§4) Breast MCF-7 and colorectal HCT-116 cancer cells were added at (1 × 10^5 cells/mL) into a 96 well plate with three replicates and incubated overnight for attachment at 37°C, in 5% CO2 humidified atmosphere. Drug concentrations at 6 serial dilutions (100, 50, 10, 1, 0.5 and 0.1 μM) were added in triplicates and incubated at 37°C, 5% CO2 for 72 h. Drugs were dissolved in 0.1 % DMSO as a vehicle. Untreated cells were used as control. 5-fluorouracil (5-FU) was used as a positive control. Thereafter, each well for each time point was removed and replaced with […] of full medium containing 10% of 3-(4,5- dimethylthiaxolyl-2)-2,5-diphenyltetrazoliumbromide (MTT) (10 mg/mL). Media was removed and 100µl of DMSO was added and cells were incubated for further 5 mins at 37 °C and 5% CO2. Plates were quantified using the SpectraMax M3 plate reader at 570 nm. The percentage inhibition was calculated as 100–[(Mean OD of treated cell × 100)/Mean OD of vehicle treated cells (DMSO)]. All the experiments were repeated at least three independent experiments. […]
A general note: Formazan colour is commonly taken as a measure of viable cells.

In data set [2] the test system is HCT-116 (colorectal cancer). Nature of the data set: MTT cytotoxicity assay, HCT-116. The following applies: for IC50: MTT, 72 h, colorectal cancer cell line HCT-116, read-out: IC50 against HCT-116; for folds cytotoxicity compared to 5-FU against HCT-116: relative to 5-fluorouracil. In kind it is cell-based, human. The protocol: as §1, §2, §3, §4
The target in data set [3] is thymidylate synthase (TS) (Homo sapiens, UniProt P04818). Nature of the data set: In vitro thymidylate synthase assay (spectrophotometric, 340 nm). In kind it is biochemical. The protocol: TS activity was performed according to the method as described by Wahab and Friedkin[27] with a slight modification according to Santi.[28] (Refer to Supplementary material for the method.) […]
In vitro Thymidylate synthase assay
It involves a mixture containing 2-mercaptoethanol (0.1 M), (6R,S)-tetrahydrofolate (0.0003 M), formaldehyde (0.012 M), MgCl2 (0.02 M), dUMP (0.001 M), TrisHCl (0.04 M), and NaEDTA […]
(0.00075 M). This assay was done spectrophotometrically at 30° C and pH 7.4. The reaction was initiated by the addition of an amount of enzyme giving a change in absorbance at 340 nm of 0.016/min in the absence of inhibitor. The percent inhibition was determined at a minimum of four inhibitor concentrations within 20% of the 50% point. The standard deviations for […]

[4] abbreviates: 30 °C, pH 7.4, read-out: TS inhibition IC50.

Where two headings read alike, the source gives them in different places.

The term IC50 denotes the concentration at which inhibition is half-maximal. For orientation: melting point means the temperature, or range, at which the solid turns liquid.

Chain of thymidylate synthase (TS) (P04818 whole entry): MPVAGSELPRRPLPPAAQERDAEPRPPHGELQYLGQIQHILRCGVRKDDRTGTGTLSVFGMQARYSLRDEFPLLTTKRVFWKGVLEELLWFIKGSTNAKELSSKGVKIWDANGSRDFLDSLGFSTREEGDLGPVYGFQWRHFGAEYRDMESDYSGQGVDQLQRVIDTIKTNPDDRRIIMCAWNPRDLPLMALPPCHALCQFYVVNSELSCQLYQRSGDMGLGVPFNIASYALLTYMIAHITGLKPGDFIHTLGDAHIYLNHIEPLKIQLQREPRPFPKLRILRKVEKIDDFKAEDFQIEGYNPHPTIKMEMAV

As to `COc1ccc(/C=C2\SC(=O)N(Cc3nnc(-c4ccccc4C)o3)C2=O)cc1` [Compound 13, (Z)-5-(4-methoxybenzylidene)-3-((5-o-tolyl-1,3,4-oxadiazol-2-yl)methyl)thiazolidine-2,4-dione], the IC50 in data set [1] (Homo sapiens, MCF7, 72 h) amounted to 56.3 µM; in data set [2] (Homo sapiens, HCT-116, 72 h), 58.6 µM.
`COc1ccc(/C=C2\SC(=O)N(Cc3nnc(COc4cccc5ccccc45)o3)C2=O)cc1` [Compound 19, (Z)-5-(4-methoxybenzylidene)-3-((5-((naphthalen-1-yloxy)methyl)-1,3,4-oxadiazol-2-yl)methyl) thiazolidine-2,4-dione] registered a melting point of 220 to 221 °C. The IC50 in data set [1] (Homo sapiens, MCF7, 72 h) came to 61.6 µM. Further, in data set [2] (Homo sapiens, HCT-116, 72 h), the IC50 was 69.5 µM.
`COc1ccc(/C=C2\SC(=O)N(Cc3nnc(-c4ccccc4O)o3)C2=O)cc1` [Compound 12, (Z)-5-(4-methoxybenzylidene)-3-((5-(2-hydroxyphenyl)-1,3,4-oxadiazol-2-yl)methyl)thiazol idine-2,4-dione]: the half-maximal inhibitory concentration (IC50) worked out at 56.3 µM in data set [1] (Homo sapiens, MCF7, 72 h) and 58.6 µM in data set [2] (Homo sapiens, HCT-116, 72 h).
Regarding `COc1ccc(/C=C2\SC(=O)N(Cc3nnc(-c4cccc(C)c4)o3)C2=O)cc1` [Compound 15, (Z)-5-(4-methoxybenzylidene)-3-((5-m-tolyl-1,3,4-oxadiazol-2-yl)methyl)thiazolidine-2,4-dione], the IC50 in data set [1] (Homo sapiens, MCF7, 72 h) turned out to be 47.8 µM; in data set [2] (Homo sapiens, HCT-116, 72 h), 39.6 µM; in data set [3] (setting [4]) it was 7.9 µM.
For `COc1ccc(/C=C2\SC(=O)N(Cc3nnc(-c4ccc(C)cc4)o3)C2=O)cc1` [Compound 11, (Z)-5-(4-methoxybenzylidene)-3-((5-p-tolyl-1,3,4-oxadiazol-2-yl)methyl)thiazolidine-2,4-dione], the melting point was in the range of 197 to 198 °C. The IC50 in data set [1] (Homo sapiens, MCF7, 72 h) worked out at 58.4 µM. Further, the IC50 in data set [2] (Homo sapiens, HCT-116, 72 h) stood at 68.1 µM.
For `COc1ccc(/C=C2\SC(=O)N(Cc3nnc(COc4cccc5cccnc45)o3)C2=O)cc1` [Compound 21, (Z)-5-(4-methoxybenzylidene)-3-((5-((quinolin-8-yloxy)methyl)-1,3,4-oxadiazol-2-yl)methyl) thiazolidine-2,4-dione] the same measures were 161 to 162 °C, 62 µM and 63.1 µM.
For the compound `O=c1[nH]cc(F)c(=O)[nH]1` [Compound 5-FU, 5-fluorouracil, reference compound], the half-inhibitory concentration (IC50) in data set [1] (Homo sapiens, MCF7, 72 h) was 34.8 µM; in data set [2] (Homo sapiens, HCT-116, 72 h), 40.5 µM.
For `COc1ccc(/C=C2\SC(=O)N(Cc3nnc(-c4ccc(Br)cc4)o3)C2=O)cc1` [Compound 10, (Z)-5-(4-methoxybenzylidene)-3-((5-(4-bromophenyl)-1,3,4-oxadiazol-2-yl)methyl)thiazolidine-2,4-dione], the half-inhibitory concentration (IC50) came to 7.87 µM in data set [1] (Homo sapiens, MCF7, 72 h); 16.1 µM in data set [2] (Homo sapiens, HCT-116, 72 h); 2.21 µM in data set [3] (setting [4]). In addition, in data set [1], the “folds activity of 5-FU against MCF-7” value is 4.4 folds. Moreover, the “folds cytotoxicity compared to 5-FU against HCT-116” value in data set [2] is 2.5 folds.
Consider `COc1ccc(/C=C2\SC(=O)N(Cc3nnc(COc4ccccc4)o3)C2=O)cc1` [Compound 16, (Z)-5-(4-methoxybenzylidene)-3-((5-(phenoxymethyl)-1,3,4-oxadiazol-2-yl)methyl)thiazolidine-2,4-dione], for which the melting point was in the range of 152 to 153 °C. For the same compound, in data set [1] (Homo sapiens, MCF7, 72 h), the IC50 was 58.4 µM. Further, in data set [2] (Homo sapiens, HCT-116, 72 h), the IC50 worked out at 67.1 µM.
With `COc1ccc(/C=C2\SC(=O)N(Cc3nnc(-c4cccc(Cl)c4)o3)C2=O)cc1` [Compound 8, (Z)-5-(4-methoxybenzylidene)-3-((5-(3-chlorophenyl)-1,3,4-oxadiazol-2-yl)methyl)thiazolidine-2,4-dione], the IC50 in data set [1] (Homo sapiens, MCF7, 72 h) worked out at 56 µM; in data set [2] (Homo sapiens, HCT-116, 72 h) it was 56.8 µM.
`COc1ccc(/C=C2\SC(=O)N(Cc3nnc(COc4cccc(Cl)c4)o3)C2=O)cc1` [Compound 17, (Z)-3-((5-((3-chlorophenoxy)methyl)-1,3,4-oxadiazol-2-yl)methyl)-5-(4-methoxybenzylidene)thiazolidine-2,4-dione]: the melting point was in the range of 142 to 143 °C. Besides, the IC50 in data set [1] (Homo sapiens, MCF7, 72 h) was determined as 65.2 µM. Also, the IC50 in data set [2] (Homo sapiens, HCT-116, 72 h) amounted to 55.5 µM.
On to `COc1ccc(/C=C2\SC(=O)N(Cc3nnc(-c4cccc([N+](=O)[O-])c4)o3)C2=O)cc1` [Compound 14, (Z)-5-(4-methoxybenzylidene)-3-((5-(3-nitrophenyl)-1,3,4-oxadiazol-2-yl)methyl)thiazolidine-2,4-dione], for which the 50% inhibitory concentration (IC50) in data set [1] (Homo sapiens, MCF7, 72 h) stood at 43.4 µM; in data set [2] (Homo sapiens, HCT-116, 72 h), 42.2 µM; in data set [2], 42.2 µM; in data set [3] (setting [4]), 9.4 µM.
In the case of `COc1ccc(/C=C2\SC(=O)N(Cc3nnc(-c4ccccc4)o3)C2=O)cc1` [Compound 7, (Z)-5-(4-methoxybenzylidene)-3-((5-phenyl-1,3,4-oxadiazol-2-yl)methyl)thiazolidine-2,4-dione], the IC50 in data set [1] (Homo sapiens, MCF7, 72 h) came to 53.5 µM; in data set [2] (Homo sapiens, HCT-116, 72 h), 57.3 µM.
Compound `COc1ccc(/C=C2\SC(=O)N(Cc3nnc(-c4ccccc4Cl)o3)C2=O)cc1` [Compound 9, (Z)-5-(4-methoxybenzylidene)-3-((5-(2-chlorophenyl)-1,3,4-oxadiazol-2-yl)methyl)thiazolidine-2,4-dione] registered a melting point of 276 to 277 °C. Besides, in data set [1] (Homo sapiens, MCF7, 72 h), the 50% inhibitory concentration (IC50) is 7.47 µM. Further, in data set [1], the IC50 was found to be 7.74 µM and the “folds activity of 5-FU against MCF-7” value is given as 4.5 folds. In addition, the IC50 in data set [2] (Homo sapiens, HCT-116, 72 h) was determined as 12.8 µM. For the same compound, the “folds cytotoxicity compared to 5-FU against HCT-116” value in data set [2] amounted to 3.1 folds. The IC50 in data set [3] (setting [4]) is 1.67 µM.
On to `Nc1nc2[nH]cc(CCc3ccc(C(=O)N[C@@H](CCC(=O)O)C(=O)O)cc3)c2c(=O)[nH]1` [PTX, Pemetrexed, reference compound], for which the half-maximal inhibitory concentration (IC50) in data set [3] stood at 8.2 µM.
Compound `COc1ccc(/C=C2\SC(=O)N(Cc3nnc(COc4cccc(Cl)c4Cl)o3)C2=O)cc1` [Compound 18, (Z)-3-((5-((2,3-dichlorophenoxy)methyl)-1,3,4-oxadiazol-2-yl)methyl)-5-(4-methoxybenzylidene)thiazolidine-2,4-dione] had a melting point of 209 to 210 °C. The IC50 in data set [1] (Homo sapiens, MCF7, 72 h) was more than 100 µM. In addition, the IC50 in data set [2] (Homo sapiens, HCT-116, 72 h) is more than 100 µM.
Compound `COc1ccc(/C=C2\SC(=O)N(Cc3nnc(COc4ccc5ccccc5c4)o3)C2=O)cc1` [Compound 20, (Z)-5-(4-methoxybenzylidene)-3-((5-((naphthalen-3-yloxy)methyl)-1,3,4-oxadiazol-2-yl)methyl) thiazolidine-2,4-dione] returned a melting point of 210 to 211 °C. Further, the IC50 in data set [1] (Homo sapiens, MCF7, 72 h) is more than 100 µM. Moreover, the IC50 in data set [2] (Homo sapiens, HCT-116, 72 h) is more than 100 µM.
